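Following 48 hours of exposure in 96-well plates, responses at five concentrations were used to interpolate endpoints linearly. The concentration for full growth arrest is given as TGI.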

Common to all, as to experiment: growth of human tumour cells (NCI), 48 h
In assay [1] the test system is TK-10 renal.
The test system of assay [2] is RPMI-8226 leukemia.
For assay [3], the system named is LOX IMVI melanoma.
The subject of assay [4] is CAKI-1 renal.
The test system of assay [5] is NCI-H522 lung.
Assay [6] relates to SK-MEL-5 melanoma.
Assay [7] has as its system UACC-62 melanoma.
Assay [8] relates to K-562 leukemia.

For the compound `Cc1ccc(S(=O)(=O)N/N=C/C(=C/c2ccc(Cl)cc2)CC(/C=N/NS(=O)(=O)c2ccc(C)cc2)=C\c2ccc(Cl)cc2)cc1`, the TGI in assay [1] stood at 45.6 µM; in assay [2], 9.11 µM; in assay [3], 3.73 µM; in assay [4], 68.4 µM; in assay [5] it was 16.1 µM; in assay [6], 13.9 µM. The TGI in assay [7] is 27.4 µM; in assay [8] it was 8.19 µM.

`O=C(O)/C=N\Nc1nc2ccccc2[nH]1`: the TGI in assay [1], in assay [2], in assay [3], in assay [4], in assay [5] and in assay [6] was over 100 µM in each case. Also, the TGI in assay [7] and in assay [8] was over 100 µM each time.

Turning to `CCC(C)(C)/C(CC(O)(C(F)(F)F)C(F)(F)F)=N\O`, the TGI in assay [1], in assay [2], in assay [3], in assay [4], in assay [5] and in assay [6] was over 100 µM throughout. Besides, the TGI in assay [7] and in assay [8] was over 100 µM throughout.

`CC[N+](CC)(CCNCC(N)=O)CC(N)=O`: the TGI in assay [1], in assay [2], in assay [3], in assay [4], in assay [5] and in assay [6] was over 10 µM each time. In addition, the TGI in assay [7] and in assay [8] was over 10 µM throughout.

For `O=C(O)c1nc(-c2ccccc2)ncc1-c1nnnn1-c1ccccc1`, the TGI in assay [1], in assay [2], in assay [3], in assay [4], in assay [5] and in assay [6] was over 100 µM each time. The TGI in assay [7] and in assay [8] was over 100 µM each time.

On to `COc1cc(C2c3cc4c(cc3OC(N3CCCC3)C2C)OCO4)cc(OC)c1O` (stereo not drawn), for which the TGI in assay [1] was 58.6 µM; in assay [2], over 100 µM; in assay [3], over 100 µM; in assay [4], over 95.1 µM; in assay [5], 19.1 µM; in assay [6], 40.5 µM. Besides, the TGI in assay [7] was over 61.6 µM; in assay [8] it was over 95.7 µM.

`COc1cc(-c2cc(=O)c3c(OC)c(OC)c(OC)c(OC)c3o2)c(OC)c(OC)c1OC`: the TGI in assay [1] was over 100 µM; in assay [2], over 100 µM; in assay [3] it was over 100 µM; in assay [4], over 100 µM; in assay [5], 94.6 µM; in assay [6] it was over 100 µM. In addition, the TGI in assay [7] was 49.1 µM; in assay [8] it was over 100 µM.

With `COc1cc(/C=C2\CCC(C)C3C2=NN(C(C)=O)C3c2cc(OC)c(OC)c(OC)c2)cc(OC)c1OC` (stereo not drawn), the TGI in assay [1] is over 100 µM; in assay [2], over 100 µM; in assay [3] it was over 100 µM; in assay [4], over 100 µM; in assay [5] it was 22.2 µM; in assay [6] it was over 100 µM. Also, the TGI in assay [7] and in assay [8] was over 100 µM in each case.

As for `CN(c1ccc(Cl)cc1)S(=O)(=O)c1cccc([N+](=O)[O-])c1`, the TGI in assay [1] was over 100 µM; in assay [2], over 100 µM; in assay [3], over 100 µM; in assay [4] it was over 100 µM; in assay [5], over 100 µM; in assay [6], 72.8 µM. Besides, the TGI in assay [7] and in assay [8] was over 100 µM in each case.

With `CC1=C(C#N)C(C#N)(C#N)C(NN(C)C)C1` (stereo not drawn), the TGI in assay [1] is 34 µM; in assay [2], 35.9 µM; in assay [3], 29.7 µM; in assay [4], 7 µM; in assay [5], 24.8 µM; in assay [6] it was 17.5 µM. Further, the values for the TGI in assay [7] and in assay [8] were 61.6 µM and 60.8 µM, respectively.

Take `O=[N+]([O-])c1ccc(Cl)c(C=NC23CC4CC(CC(C4)C2)C3)c1`: the TGI in assay [1], in assay [2], in assay [3], in assay [4], in assay [5] and in assay [6] was over 10 µM in each case. Also, the TGI in assay [7] and in assay [8] was over 10 µM each time.

Consider `CCC(=O)NC(Nc1cccc(F)c1C)(C(F)(F)F)C(F)(F)F`, for which the TGI in assay [1], in assay [2], in assay [3], in assay [4], in assay [5] and in assay [6] was over 100 µM in each case. Further, the TGI in assay [7] and in assay [8] was over 100 µM each time.

As for `CCCCCN=Cc1c(O)c(O)c(C(C)C)c2cc(C)c(-c3c(C)cc4c(C(C)C)c(O)c(O)c(C=NCCCCC)c4c3O)c(O)c12`, the TGI in assay [1] is over 100 µM; in assay [2], over 100 µM; in assay [3], 16.7 µM; in assay [4], 97.6 µM; in assay [5] it was 25.2 µM; in assay [6], 28.1 µM. Also, the TGI turned out to be 33 µM in assay [7] and 70 µM in assay [8].

With `NS(=O)(=O)c1nn2c(Br)c(-c3ccccc3)nc2s1`, the TGI in assay [1] is 17.7 µM; in assay [2] it was 15.5 µM; in assay [3] it was 4.49 µM; in assay [4] it was 9.72 µM; in assay [5], 3.55 µM; in assay [6], 6.48 µM. The TGI was found to be 15.4 µM in assay [7] and 21.2 µM in assay [8].

On to `Cc1cccc(-c2nc3ccc([N+](=O)[O-])cc3c(=O)o2)c1`, for which the TGI in assay [1], in assay [2], in assay [3], in assay [4], in assay [5] and in assay [6] was over 100 µM each time. The TGI in assay [7] and in assay [8] was over 100 µM in each case.

On to `CN(c1ccc(Cl)cc1)S(=O)(=O)c1ccc([N+](=O)[O-])cc1`, for which the TGI in assay [1], in assay [2], in assay [3], in assay [4], in assay [5] and in assay [6] was over 100 µM throughout. Moreover, the TGI in assay [7] and in assay [8] was over 100 µM throughout.

(Values after PubChem BioAssay (NCI).)
